Among the data in patent publication US20210253518A1, “KINASE INHIBITOR” (NISSAN CHEMICAL CORPORATION, priority 2018, published 2021) are inhibition and IC50 values, retold here.

Holding throughout (assay): Off-chip Mobility Shift Assay (MSA method), kinase inhibition
What all share (type): biochemical

The target of one assay is p70S6K (Homo sapiens, UniProt P23443). The conditions noted are these: for inhibition at 0.1 µM: read-out: inhibition (%) p70S6K. The protocol: (§1) For compound k-1:B-1, inhibitory activity evaluation (calculation of 50% inhibitory concentration (IC50)) was performed on 8 kinds of kinases (CGK2, LATS2, MSK1, p70S6K, PKACα, PKACβ, SGK2, SGK3). The activity was measured using the Off-chip Mobility Shift Assay (MSA method) described below. The compound was added such that the test concentration of k-1:B-1 was in 10 steps from the final concentration of 10 μM to 0.3 nM.
p70S6K, sequence (P23443 whole entry): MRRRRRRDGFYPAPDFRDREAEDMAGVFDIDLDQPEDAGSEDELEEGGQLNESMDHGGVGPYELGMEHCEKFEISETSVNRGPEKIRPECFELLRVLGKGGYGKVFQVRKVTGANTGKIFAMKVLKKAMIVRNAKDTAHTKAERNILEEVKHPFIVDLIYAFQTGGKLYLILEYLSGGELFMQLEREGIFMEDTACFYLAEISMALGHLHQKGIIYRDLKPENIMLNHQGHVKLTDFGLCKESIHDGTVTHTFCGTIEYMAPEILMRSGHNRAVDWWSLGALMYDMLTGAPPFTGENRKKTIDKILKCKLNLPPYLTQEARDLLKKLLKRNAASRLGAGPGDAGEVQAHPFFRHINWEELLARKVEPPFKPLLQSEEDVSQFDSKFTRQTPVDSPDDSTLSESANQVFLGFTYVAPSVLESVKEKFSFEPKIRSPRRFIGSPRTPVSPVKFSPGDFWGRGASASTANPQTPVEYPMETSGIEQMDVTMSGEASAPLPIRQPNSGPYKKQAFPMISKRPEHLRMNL
(§2) As an analysis method of the data, the mean signal of the control well containing all reaction components was set to 0% inhibition, the mean signal without enzyme addition was set to 100% inhibition, and the inhibition rate was calculated from the mean signal of 2 wells of each test substance test. The IC50 value was obtained by approximating a plot based on the test substance concentration and inhibition rate to a 4 parameter logistics curve by using the Excel Solver add-in and by the non-linear least squares method.
(§3) 5 μL of k-1:B-1 solution at 4-fold concentration, 5 μL of substrate/ATP/metal solution at 4-fold concentration, and 10 μL of kinase solution at 2-fold concentration, each prepared with assay buffer (20 mM HEPES, 0.01% Triton X-100, 2 mM DTT, pH 7.5), were mixed in the wells of a polypropylene 384-well plate and reacted at room temperature for 1 or 5 hr. Successively, 70 μL of Termination Buffer (QuickScout Screening Assist MSA; Carna Biosciences) was added to discontinue the reaction. Then, the substrate peptide and the phosphorylated peptide in the reaction solution were separated and quantified by the LabChip system (Perkin Elmer). The kinase reaction was evaluated by the resultant product ratio (P/(P+S)) calculated from the substrate peptide peak height (S) and the phosphorylated peptide peak height (P).
(§4) For compounds k-1:H-7, k-1:H-1, k-1:D-1, k-1:J-1, and k-1:B-1, inhibitory rate at 100 nM was calculated on 8 kinds of kinases (CGK2, LATS2, MSK1, p70S6K, PKACα, PKACβ, SGK2, SGK3). The activity was measured using the MSA method. As an analysis method of the data, the mean signal of the control well containing all reaction components was set to 0% inhibition, the mean signal without enzyme addition was set to 100% inhibition, and the inhibition rate was calculated from the mean signal of 2 wells of each test substance test.
as §3, with “a compound” for “k-1:B-1”

The target of another assay is T1, CGK2 (Homo sapiens, UniProt Q13237).
T1 sequence (Q13237 1-762): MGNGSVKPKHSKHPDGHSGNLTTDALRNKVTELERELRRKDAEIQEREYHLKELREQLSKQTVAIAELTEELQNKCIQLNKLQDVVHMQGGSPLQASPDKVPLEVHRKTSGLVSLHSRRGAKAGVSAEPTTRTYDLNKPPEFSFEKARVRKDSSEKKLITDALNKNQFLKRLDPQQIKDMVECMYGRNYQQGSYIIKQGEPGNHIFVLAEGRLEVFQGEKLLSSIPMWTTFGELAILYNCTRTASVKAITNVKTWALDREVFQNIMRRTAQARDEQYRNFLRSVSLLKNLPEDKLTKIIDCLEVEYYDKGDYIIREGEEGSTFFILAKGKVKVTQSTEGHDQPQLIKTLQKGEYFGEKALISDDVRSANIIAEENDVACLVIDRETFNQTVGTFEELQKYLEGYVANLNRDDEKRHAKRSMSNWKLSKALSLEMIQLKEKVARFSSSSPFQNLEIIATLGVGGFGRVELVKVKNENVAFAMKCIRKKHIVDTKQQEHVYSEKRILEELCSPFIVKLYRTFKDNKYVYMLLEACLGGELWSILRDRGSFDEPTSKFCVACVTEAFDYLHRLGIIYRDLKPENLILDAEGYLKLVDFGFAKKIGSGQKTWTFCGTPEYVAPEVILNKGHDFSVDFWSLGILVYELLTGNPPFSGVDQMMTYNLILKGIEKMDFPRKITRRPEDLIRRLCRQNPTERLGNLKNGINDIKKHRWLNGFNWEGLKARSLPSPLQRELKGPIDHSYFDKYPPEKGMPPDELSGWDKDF
The conditions noted are these: for inhibition at 0.1 µM: read-out: inhibition (%) CGK2. The protocol: as §1, §2, §3, §4
as §3, with “a compound” for “k-1:B-1”

The target of the next assay is MSK1 (Homo sapiens, UniProt O75582). The conditions noted are these: for inhibition at 0.1 µM: read-out: inhibition (%) MSK1. The method, then:
as §1, §2, §3, §4
as §3, with “a compound” for “k-1:B-1”

For another assay, the target named is PKACβ (Homo sapiens, UniProt P22694). The conditions noted are these: for inhibition at 0.1 µM: read-out: inhibition (%) PKACβ. The method, then: as §1, §2, §3, §4
as §3, with “a compound” for “k-1:B-1”

The next assay deals with T2, SGK3 (Homo sapiens, UniProt Q96BR1).
T2 sequence (Q96BR1 1-496): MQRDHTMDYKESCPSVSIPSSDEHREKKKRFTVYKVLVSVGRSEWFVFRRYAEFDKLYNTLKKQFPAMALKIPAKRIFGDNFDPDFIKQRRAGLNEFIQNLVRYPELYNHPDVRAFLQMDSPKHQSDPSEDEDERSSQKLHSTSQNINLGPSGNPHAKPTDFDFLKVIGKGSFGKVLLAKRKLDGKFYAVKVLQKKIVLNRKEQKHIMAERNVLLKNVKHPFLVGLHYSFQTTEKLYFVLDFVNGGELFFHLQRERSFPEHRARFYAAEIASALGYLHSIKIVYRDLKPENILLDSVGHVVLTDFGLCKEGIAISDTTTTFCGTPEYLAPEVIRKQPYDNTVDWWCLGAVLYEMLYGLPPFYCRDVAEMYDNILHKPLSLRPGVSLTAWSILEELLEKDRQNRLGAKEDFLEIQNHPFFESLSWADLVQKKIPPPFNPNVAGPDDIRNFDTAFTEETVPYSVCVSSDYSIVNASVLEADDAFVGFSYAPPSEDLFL
The conditions noted are these: for inhibition at 0.1 µM: read-out: inhibition (%) SGK3. The method, then: as §1, §2, §3, §4
as §3, with “a compound” for “k-1:B-1”

The mark [1] stands for this setting: MSA method, 10 steps from 10 μM to 0.3 nM.

Read-outs that look alike come from different tables or passages of the source.

MSK1, sequence (O75582 whole entry): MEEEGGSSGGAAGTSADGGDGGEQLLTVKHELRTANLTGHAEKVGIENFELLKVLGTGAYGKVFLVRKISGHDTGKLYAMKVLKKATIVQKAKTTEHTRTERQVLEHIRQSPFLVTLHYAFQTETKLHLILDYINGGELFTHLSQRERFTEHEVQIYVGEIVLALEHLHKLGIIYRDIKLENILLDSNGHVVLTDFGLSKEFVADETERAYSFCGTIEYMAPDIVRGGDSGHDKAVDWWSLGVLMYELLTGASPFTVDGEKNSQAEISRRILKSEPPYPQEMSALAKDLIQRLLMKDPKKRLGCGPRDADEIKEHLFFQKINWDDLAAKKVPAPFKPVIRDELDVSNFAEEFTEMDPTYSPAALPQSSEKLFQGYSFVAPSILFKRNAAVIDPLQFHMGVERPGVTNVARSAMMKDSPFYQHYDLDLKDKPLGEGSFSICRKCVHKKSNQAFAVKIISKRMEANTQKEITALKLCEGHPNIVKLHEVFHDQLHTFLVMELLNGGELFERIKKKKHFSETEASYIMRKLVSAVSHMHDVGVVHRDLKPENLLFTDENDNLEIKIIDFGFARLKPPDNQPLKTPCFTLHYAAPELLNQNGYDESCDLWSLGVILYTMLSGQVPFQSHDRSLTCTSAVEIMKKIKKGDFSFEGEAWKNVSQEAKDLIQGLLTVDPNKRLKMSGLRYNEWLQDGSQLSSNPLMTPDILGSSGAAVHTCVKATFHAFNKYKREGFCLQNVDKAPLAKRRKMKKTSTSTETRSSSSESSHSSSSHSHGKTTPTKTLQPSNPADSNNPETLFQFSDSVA

On to `CCC(=NNC(=O)CNc1ccccc1)c1ccc(O)c(C)c1O` [k-1:H-1], for which the inhibition (usually the drop in the measured response relative to a control, in per cent) at 0.1 µM turned out to be 82% on p70S6K (at 100 nM, MSA method); 77.6% at CGK2 (at 100 nM, MSA method); 99.7% at MSK1 (at 100 nM, MSA method); 87.7% on PKACβ (at 100 nM, MSA method); 73.7% on SGK3 (at 100 nM, MSA method).

In the case of `CC/C(=N\NC(=O)C(C)Nc1ccccc1)c1ccc(O)c(C)c1O` (stereo not drawn) [k-1:B-1], the IC50 (as a rule, the midpoint of a concentration-inhibition curve) on p70S6K (setting [1]) came out at 41.5 nM; on CGK2 (setting [1]), 29.9 nM; at MSK1 (setting [1]), 17.4 nM; on PKACβ (setting [1]), 29.3 nM; at SGK3 (setting [1]), 63.3 nM. For the same molecule, the inhibition at 0.1 µM came to 67.6% at p70S6K (at 100 nM, MSA method); 83.2% at CGK2 (at 100 nM, MSA method); 87.7% at MSK1 (at 100 nM, MSA method); 80.1% on PKACβ (at 100 nM, MSA method); 65.9% on SGK3 (at 100 nM, MSA method).

Consider `CC/C(=N\NC(=O)CNc1cccc(O)c1)c1ccc(O)c(C)c1O` [k-1:D-1], for which the inhibition at 0.1 µM is 97.9% at p70S6K; 97.2% at CGK2; 101% on MSK1; 98.5% at PKACβ; 93.6% on SGK3.

Turning to `CCC(=NNC(=O)C(CC)Nc1ccccc1)c1ccc(O)c(C)c1O` (stereo not drawn) [k-1:H-7], the inhibition at 0.1 µM at p70S6K (at 100 nM, MSA method) worked out at 70.3%; at CGK2 (at 100 nM, MSA method), 80.8%; on MSK1 (at 100 nM, MSA method), 94.9%; on PKACβ (at 100 nM, MSA method), 72%; at SGK3 (at 100 nM, MSA method) it was 44.4%.

Turning to `CC/C(=N\NC(=O)NCc1cccc(O)c1)c1ccc(O)c(C)c1O` [k-1:J-1], the inhibition at 0.1 µM came to 78.3% at p70S6K; 51.3% at CGK2; 99.6% at MSK1; 89.7% on PKACβ; 82.5% on SGK3.
